This experiment has as its target T1, HCV polymerase (Hepatitis C virus genotype 1b, UniProt P26663).
T1 construct: a region encoding NS5B (J Virol 1991 March, 65(3), 1105-13, 544 amino acids after deletion of 47 amino acids on the C-terminal); 6xHis (C); made in house; host or cells: Escherichia coli
As to the kind of experiment: biochemical. More on the design: species or system HCV BK strain. In a few lines:
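Recombinant HCV BK-strain NS5B (C-terminal 47 aa deleted, His6-tagged, E. coli), 0.5 μg/ml, run with 5 μg/ml in vitro-transcribed RNA template (polyU/3′X), ATP/GTP/CTP 50 μM, UTP 2 μM plus [3H]UTP, pH 7.5, 25° C, 90 min. TCA-precipitated RNA counted by scintillation; IC50 from activity with vs without compound.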

Structures can show the parent of a compound that is named as a salt. Where two headings read alike, the source gives them in different places. Where only a bound is given, the exact number is not on record here.

T1 sequence (P26663 2420-2963): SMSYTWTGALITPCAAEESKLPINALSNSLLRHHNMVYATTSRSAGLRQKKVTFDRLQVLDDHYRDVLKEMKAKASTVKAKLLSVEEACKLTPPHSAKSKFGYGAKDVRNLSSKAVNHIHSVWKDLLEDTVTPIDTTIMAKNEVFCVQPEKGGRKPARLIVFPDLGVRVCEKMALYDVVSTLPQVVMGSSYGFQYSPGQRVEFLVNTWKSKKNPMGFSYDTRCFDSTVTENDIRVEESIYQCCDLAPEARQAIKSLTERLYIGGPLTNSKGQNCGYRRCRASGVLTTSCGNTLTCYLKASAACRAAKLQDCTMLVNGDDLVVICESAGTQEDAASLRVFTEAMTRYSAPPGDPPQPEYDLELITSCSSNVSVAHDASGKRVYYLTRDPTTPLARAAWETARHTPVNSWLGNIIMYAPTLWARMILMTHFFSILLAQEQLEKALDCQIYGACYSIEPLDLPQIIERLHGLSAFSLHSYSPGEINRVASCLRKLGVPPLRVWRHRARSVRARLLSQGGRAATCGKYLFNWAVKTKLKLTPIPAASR

`CCc1ccc2c(c1)N(CCN1CCC[C@@H](CCOC)C1)CCn1c-2c(C2CCCCC2)c2ccc(C(=O)O)cc21` [Example 1-430, 13-cyclohexyl-3-ethyl-5-{2-[(S)-3-(2-methoxyethyl)piperidin-1-yl]ethyl}-6,7-dihydro-5H-benzo[5,6][1,4]diazepino[7,1-a]indole-10-carboxylic acid dihydrochloride] registered an IC50 of less than 100 nM. In turn, `CNC(=O)c1ccc2c(C3CCCCC3)c3n(c2c1)CCOc1ccccc1-3` [Example 2-173, N-methyl-12-cyclohexyl-6,7-dihydro-5-oxa-7a-azadibenzo[a,e]azulene-9-carboxamide] showed an IC50 of less than 100 nM. Compound `COc1ccc2c(c1)CN(C)CCn1c-2c(C2CCCCC2)c2ccc(C(=O)O)cc21` [Example 11-6, 14-cyclohexyl-3-methoxy-6-methyl-5,6,7,8-tetrahydrobenzo[6,7][1,4]diazocino[8,1-a]indole-11-carboxylic acid monohydrochloride] came in with an IC50 of less than 100 nM. `CCC1CCCN(CCN2CCn3c(c(C4CCCC4)c4ccc(C(=O)O)cc43)-c3ccc(Cl)cc32)C1` (stereo not drawn) [Example 1-389, 3-chloro-13-cyclopentyl-5-[2-(3-ethylpiperidin-1-yl)ethyl]-6,7-dihydro-5H-benzo[5,6][1,4]diazepino[7,1-a]indole-10-carboxylic acid]: the IC50 (25° C., 90 min, [5,6-3H]UTP incorporation into RNA, read-out: HCV polymerase inhibitory activity IC50) was less than 100 nM. `CC(=O)Nc1cccc(COc2ccc3c(c2)N(CCN(C)C)CCn2c-3c(C3CCCCC3)c3ccc(C(=O)O)cc32)c1` [Example 1-582, 3-(3-acetylaminobenzyloxy)-13-cyclohexyl-5-(2-dimethylaminoethyl)-6,7-dihydro-5H-benzo[5,6][1,4]diazepino[7,1-a]indole-10-carboxylic acid dihydrochloride] gave an IC50 of less than 100 nM. Regarding `CC(=O)NC1CCN(C(=O)C(C)(C)NC(=O)c2ccc3c(C4CCCCC4)c4n(c3c2)CCOc2ccccc2-4)CC1` [Example 2-334, N-[2-(4-acetylaminopiperidin-1-yl)-1,1-dimethyl-2-oxoethyl]-12-cyclohexyl-6,7-dihydro-5-oxa-7a-azadibenzo[a,e]azulene-9-carboxamide], the IC50 is less than 100 nM. On the same count and under the same terms, the figure for `COc1ccc(CC(C)(C)NC(=O)c2ccc3c(C4CCCCC4)c4n(c3c2)CCOc2ccccc2-4)cc1` [Example 2-219, N-[2-(4-methoxyphenyl)-1,1-dimethylethyl]-12-cyclohexyl-6,7-dihydro-5-oxa-7a-azadibenzo[a,e]azulene-9-carboxamide] is 100 to 1000 nM; for `Cc1ccc2c(c1)N(CCN1CCSCC1)CCn1c-2c(C2CCCCC2)c2ccc(C(=O)O)cc21` [Example 1-561, 13-cyclohexyl-3-methyl-5-[2-(thiomorpholin-4-yl)ethyl]-6,7-dihydro-5H-benzo[5,6][1,4]diazepino[7,1-a]indole-10-carboxylic acid dihydrochloride] it is less than 100 nM; for `COCC(NC(=O)c1ccc2c(C3CCCCC3)c3n(c2c1)CCOc1cc(OC)ccc1-3)C(=O)N1CCC(O)CC1` (stereo not drawn) [Example 2-368, N-[2-(4-hydroxypiperidin-1-yl)-1-methoxymethyl-2-oxoethyl]-12-cyclohexyl-3-methoxy-6,7-dihydro-5-oxa-7a-azadibenzo[a,e]azulene-9-carboxamide] it is less than 100 nM.

With `CN(C)CCN1CCn2c(c(C3CCCCC3)c3ccc(C(=O)O)cc32)-c2ccc(OCc3ccc(Cl)s3)cc21` [Example 1-560, 3-(5-chlorothiophen-2-ylmethoxy)-13-cyclohexyl-5-(2-dimethylaminoethyl)-6,7-dihydro-5H-benzo[5,6][1,4]diazepino[7,1-a]indole-10-carboxylic acid dihydrochloride], the half-maximal inhibitory concentration (IC50) was less than 100 nM.

`O=C(O)c1ccc2c(C3CCCCC3)c3n(c2c1)CCN(CCc1ccccc1)c1ccccc1-3` [Example 1-41, 13-cyclohexyl-5-phenethyl-6,7-dihydro-5H-benzo[5,6][1,4]diazepino[7,1-a]indole-10-carboxylic acid monohydrochloride] had an IC50 of less than 100 nM. Still for that read-out and setting: the figure for `CC1CCCN(CCCN2CCn3c(c(C4CCCCC4)c4ccc(C(=O)O)cc43)-c3ccc(Cl)cc32)C1` (stereo not drawn) [Example 1-320, 3-chloro-13-cyclohexyl-5-[3-(3-methylpiperidin-1-yl)propyl]-6,7-dihydro-5H-benzo[5,6][1,4]diazepino[7,1-a]indole-10-carboxylic acid] is less than 100 nM; for `CC(C)(CNC(=O)OC(C)(C)C)NC(=O)c1ccc2c(C3CCCCC3)c3n(c2c1)CCOc1ccccc1-3` [Example 2-185, tert-butyl {2-[(12-cyclohexyl-6,7-dihydro-5-oxa-7a-azadibenzo[a,e]azulene-9-carbonyl)amino]-2-methylpropyl}carbamate] it is 100 to 1000 nM. Still for that read-out and setting: to `Cn1c(C(C)(C)NC(=O)c2ccc3c(C4CCCCC4)c4n(c3c2)CCOc2ccccc2-4)nc2ccccc21` [Example 2-285, N-[1-methyl-1-(1-methyl-1H-benzimidazol-2-yl)ethyl]-12-cyclohexyl-6,7-dihydro-5-oxa-7a-azadibenzo[a,e]azulene-9-carboxamide] belongs less than 100 nM; to `O=C(O)c1ccc2c(C3CCCCC3)c3n(c2c1)CCN(CCN1CCCCCCC1)c1ccccc1-3` [Example 1-154, 5-[2-(azocan-1-yl)ethyl]-13-cyclohexyl-6,7-dihydro-5H-benzo[5,6][1,4]diazepino[7,1-a]indole-10-carboxylic acid], less than 100 nM; to `COc1ccc2c(c1)OCCn1c-2c(C2CCCCC2)c2ccc(C(=O)NC(C)(C)c3nc4cc(/C=C/C(=O)O)ccc4[nH]3)cc21` [Example 2-411, (E)-3-(2-{1-[(12-cyclohexyl-3-methoxy-6,7-dihydro-5-oxa-7a-azadibenzo[a,e]azulene-9-carbonyl)amino]-1-methylethyl}-1H-benzimidazol-5-yl)acrylic acid], less than 100 nM. Consider `CC(=O)NS(=O)(=O)c1ccc2c(C3CCCCC3)c3n(c2c1)CCN(CCN1CCCCC1)c1cc(C)ccc1-3` [Example 1-520, N-acetyl-13-cyclohexyl-3-methyl-5-[2-(piperidin-1-yl)ethyl]-6,7-dihydro-5H-benzo[5,6][1,4]diazepino[7,1-a]indole-10-sulfonamide dihydrochloride], for which the IC50 was less than 100 nM. Take `CC1CC(C)CN(CCN2CCn3c(c(C4CCCCC4)c4ccc(C(=O)O)cc43)-c3ccccc32)C1` (stereo not drawn) [Example 1-189, 13-cyclohexyl-5-[2-(3,5-dimethylpiperidin-1-yl)ethyl]-6,7-dihydro-5H-benzo[5,6][1,4]diazepino[7,1-a]indole-10-carboxylic acid dihydrochloride]: the IC50 was less than 100 nM. For `CN1CCN(CCN2CCn3c(c(C4CCCCC4)c4ccc(C(=O)O)cc43)-c3ccccc32)CC1` [Example 1-52, 13-cyclohexyl-5-[2-(4-methylpiperazin-1-yl)ethyl]-6,7-dihydro-5H-benzo[5,6][1,4]diazepino[7,1-a]indole-10-carboxylic acid trihydrochloride], the IC50 was less than 100 nM. Still for that read-out and setting: the figure for `COc1ccc2c(c1)N(CC(=O)N1CCCCC1)CCn1c-2c(C2CCCCC2)c2ccc(C(=O)O)cc21` [Example 1-65, 13-cyclohexyl-3-methoxy-5-[2-oxo-2-(piperidin-1-yl)ethyl]-6,7-dihydro-5H-benzo[5,6][1,4]diazepino[7,1-a]indole-10-carboxylic acid monohydrochloride] is less than 100 nM. The compound `O=C(O)c1ccc2c(C3CCCCC3)c3n(c2c1)CCOc1c-3cccc1[N+](=O)[O-]` [Example 2-477, 12-cyclohexyl-4-nitro-6,7-dihydro-5-oxa-7a-azadibenzo[a,e]azulene-9-carboxylic acid] displayed an IC50 of less than 100 nM.

In turn, `CC(C)(NC(=O)c1ccc2c(C3CCCCC3)c3n(c2c1)CCOc1ccccc1-3)c1nc2ccc(C(N)=O)cc2[nH]1` [Example 2-225, N-[1-(6-carbamoyl-1H-benzimidazol-2-yl)-1-methylethyl]-12-cyclohexyl-6,7-dihydro-5-oxa-7a-azadibenzo[a,e]azulene-9-carboxamide] had an IC50 of less than 100 nM.

For `COc1ccc2c(c1)OCCn1c-2c(C2CCCCC2)c2ccc(C(=O)N[C@@H](Cc3ccc(NC(=O)N(C)C)cc3)C(=O)O)cc21` [Example 2-425, (S)-2-[(12-cyclohexyl-3-methoxy-6,7-dihydro-5-oxa-7a-azadibenzo[a,e]azulene-9-carbonyl)amino]-3-[4-(3,3-dimethylureido)phenyl]propionic acid], the IC50 is less than 100 nM. `CCN(CCCN1CCn2c(c(C3CCCCC3)c3ccc(C(=O)O)cc32)-c2ccc(C)cc21)C(C)C` [Example 1-524, 13-cyclohexyl-5-[3-(N-ethyl-N-isopropylamino)propyl]-3-methyl-6,7-dihydro-5H-benzo[5,6][1,4]diazepino[7,1-a]indole-10-carboxylic acid dihydrochloride]: the IC50 was less than 100 nM.

For the compound `CCN1CCC(OCCN2CCn3c(c(C4CCCCC4)c4ccc(C(=O)O)cc43)-c3ccc(Cl)cc32)CC1` [Example 1-317, 3-chloro-13-cyclohexyl-5-[2-(1-ethylpiperidin-4-yloxy)ethyl]-6,7-dihydro-5H-benzo[5,6][1,4]diazepino[7,1-a]indole-10-carboxylic acid dihydrochloride], the IC50 was less than 100 nM. `CC1CCCN(CCN2CCn3c(c(C4CCCCC4)c4ccc(C(=O)O)cc43)-c3ccc(Cl)cc32)C1` (stereo not drawn) [Example 1-214, 3-chloro-13-cyclohexyl-5-[2-(3-methylpiperidin-1-yl)ethyl]-6,7-dihydro-5H-benzo[5,6][1,4]diazepino[7,1-a]indole-10-carboxylic acid dihydrochloride]: the IC50 is less than 100 nM.

Consider `Cc1nc(COc2ccc3c(c2)OCCn2c-3c(C3CCCCC3)c3ccc(C(=O)O)cc32)cs1` [Example 2-34, 12-cyclohexyl-3-(2-methylthiazol-4-ylmethoxy)-6,7-dihydro-5-oxa-7a-azadibenzo[a,e]azulene-9-carboxylic acid], for which the IC50 was less than 100 nM.

The record behind these values is patent US20070049593A1 (priority 2004, published 2007).
